From ChEMBL document CHEMBL1148813, “Discovery and characterization of novel, potent, non-peptide parathyroid hormone-1 receptor antagonists” (J Med Chem, 2007)

What follows are compounds tested against T1, Parathyroid hormone/parathyroid hormone-related peptide receptor (Homo sapiens, UniProt Q03431) (assay: Displacement of [125I]-[Nle,8,18 Tyr34]-hPTH(1-34) from human recombinant PTH1R expressed in HEK293 cells). Conditions: not given.
T1 sequence (Q03431 whole entry): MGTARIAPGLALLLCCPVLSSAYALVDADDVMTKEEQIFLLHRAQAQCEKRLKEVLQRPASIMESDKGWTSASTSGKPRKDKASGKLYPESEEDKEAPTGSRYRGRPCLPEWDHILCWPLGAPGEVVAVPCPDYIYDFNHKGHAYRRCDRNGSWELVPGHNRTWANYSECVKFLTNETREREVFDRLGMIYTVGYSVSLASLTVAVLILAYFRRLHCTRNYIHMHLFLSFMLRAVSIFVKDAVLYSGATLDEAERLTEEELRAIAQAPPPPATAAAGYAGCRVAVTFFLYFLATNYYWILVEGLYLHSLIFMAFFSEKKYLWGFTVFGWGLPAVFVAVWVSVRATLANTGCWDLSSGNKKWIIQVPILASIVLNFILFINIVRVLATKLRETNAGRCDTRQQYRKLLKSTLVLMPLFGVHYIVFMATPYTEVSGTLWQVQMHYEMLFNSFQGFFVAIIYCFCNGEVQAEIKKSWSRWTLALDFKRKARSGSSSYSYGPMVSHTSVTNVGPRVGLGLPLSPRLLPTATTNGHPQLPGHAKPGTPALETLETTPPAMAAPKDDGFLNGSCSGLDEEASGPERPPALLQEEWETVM
Type: cell-based

Row | SMILES | Ki
1 | N=C(N)Nc1cccc(N2C(=O)N(Cc3ccccc3)N=C(C3CCCCC3)c3ccccc32)c1 | 2.82 µM
2 | N=C(N)Nc1ccc(N2C(=O)N(Cc3ccccc3)N=C(c3ccccc3)c3ccccc32)cc1 | 3.39 µM
3 | O=C1N(Cc2ccccc2)N=C(C2CCCCC2)c2ccccc2N1c1ccc(NC2=NCCN2)cc1 | 0.288 µM
4 | Cc1ccc2c(c1)N(c1ccc(NC(=O)C(N)C(C)C)cc1)C(=O)N(Cc1ccccc1)N=C2C1CCCCC1 (stereo not given) | 0.112 µM
5 | Cc1ccc2c(c1)N(c1ccc(NC3=NCCN3)cc1)C(=O)N(Cc1ccccc1)N=C2C1CCCCC1 | 0.0708 µM
6 | NCC(=O)Nc1ccc(N2C(=O)N(Cc3ccccc3)N=C(C3CCCCC3)c3ccccc32)cc1 | 0.676 µM
7 | N=C(N)Nc1ccc(CN2C(=O)N(Cc3ccccc3)N=C(C3CCCCC3)c3ccccc32)cc1 | 0.933 µM
8 | Cc1ccc2c(c1)N(c1ccc(NC(=N)N)cc1)C(=O)N(Cc1ccccc1)N=C2C1CCCCC1 | 0.155 µM
9 | CC(C)C(N)C(=O)Nc1ccc(N2C(=O)N(Cc3ccccc3)N=C(C3CCCCC3)c3ccccc32)cc1 (stereo not given) | 0.38 µM
10 | N=C(N)Nc1ccc(N2C(=O)N(Cc3ccccc3)N=C(CC3CCCCC3)c3ccccc32)cc1 | 0.562 µM
11 | Cc1ccc2c(c1)N(c1ccc(NCCc3ncc[nH]3)cc1)C(=O)N(C1CCc3ccccc3CC1)N=C2C1CCOCC1 | 0.00676 µM
12 | N=C(N)Nc1ccc(N2C(=O)N(Cc3ccccc3)N=C(C3CCCCC3)c3ccccc32)cc1 | 0.708 µM
13 | O=C(O)c1ccc(N2C(=O)N(Cc3ccccc3)N=C(C3CCCCC3)c3ccccc32)cc1 | > 100 µM

Second part, the compound after the results:

Row | Ki | SMILES
14 | 0.000912 µM | Cc1ccc2c(c1)N(c1ccc(NCCc3ncc[nH]3)cc1)C(=O)N(C1CCc3ccccc3CC1)N=C2C1CCCCC1
15 | 0.0832 µM | COCCN1N=C(C2CCCCC2)c2ccc(C)cc2N(c2ccc(NCCc3ncc[nH]3)cc2)C1=O
16 | 0.00355 µM | Cc1ccc2c(c1)N(c1ccc(NCCc3ncc[nH]3)cc1)C(=O)N(C(C)C)N=C2C1CCCCC1
17 | 0.0204 µM | Cc1ccc2c(c1)N(c1ccc(NCCCc3ncc[nH]3)cc1)C(=O)N(C)N=C2C1CCCCC1
18 | 0.0038 µM | Cc1ccc2c(c1)N(c1ccc(NCCc3ncc[nH]3)cc1)C(=O)N(Cc1ccccc1)N=C2C1CCCCC1
19 | 0.00871 µM | Cc1ccc2c(c1)N(c1ccc(NCCc3ncc[nH]3)cc1)C(=O)N(C1COc3ccccc3OC1)N=C2C1CCCCC1
20 | 0.0132 µM | Cc1ccc2c(c1)N(c1ccc(NCCc3ncc[nH]3)cc1)C(=O)N(C)N=C2C1CCCCC1
21 | 0.00182 µM | Cc1cc2c(cc1OCc1ccccc1)C(C1CCCCC1)=NN(C)C(=O)N2c1ccc(NCCc2ncc[nH]2)cc1
22 | 0.00145 µM | Cc1cc2c(cc1NCc1ccccc1)C(C1CCCCC1)=NN(C)C(=O)N2c1ccc(NCCc2ncc[nH]2)cc1
23 | 0.617 µM | Cc1ccc2c(c1)N(c1ccc(NCCc3ncc[nH]3)cc1)C(=O)N(C)N=C2C1CCOCC1
24 | 0.0501 µM | Cc1ccc2c(c1)N(c1ccc(NCc3ncc[nH]3)cc1)C(=O)N(C)N=C2C1CCCCC1
25 | 0.00661 µM | Cc1ccc2c(c1)N(c1ccc(NCCc3ncc[nH]3)cc1)C(=O)N(C1CCOCC1)N=C2C1CCCCC1
26 | 0.00676 µM | CCCN1N=C(C2CCCCC2)c2ccc(C)cc2N(c2ccc(NCCc3ncc[nH]3)cc2)C1=O

The compounds below were run against T1, Parathyroid hormone/parathyroid hormone-related peptide receptor (assay: Antagonist activity at human wild type PTH1 receptor expressed in SaOS2 cells assessed as inhibition of PTHrP (1-34)-stimulated cAMP production at 3 uM). Conditions: read-out: pA2 (converted).
Type: functional, cell-based, SAOS-2

Row | Kb | SMILES
27 | 0.0195 µM | Cc1ccc2c(c1)N(c1ccc(NCCc3ncc[nH]3)cc1)C(=O)N(C)N=C2C1CCCCC1

Each compound was assayed against T2, Parathyroid hormone/parathyroid hormone-related peptide receptor (Mus musculus, UniProt P41593) (assay: Antagonist activity at mouse wild type PTH1 receptor expressed in MC3T3E1 cells assessed as inhibition of PTHrP (1-34)-stimulated cAMP production at 3 uM). Conditions: read-out: pA2 (converted).
T2 sequence (P41593 whole entry): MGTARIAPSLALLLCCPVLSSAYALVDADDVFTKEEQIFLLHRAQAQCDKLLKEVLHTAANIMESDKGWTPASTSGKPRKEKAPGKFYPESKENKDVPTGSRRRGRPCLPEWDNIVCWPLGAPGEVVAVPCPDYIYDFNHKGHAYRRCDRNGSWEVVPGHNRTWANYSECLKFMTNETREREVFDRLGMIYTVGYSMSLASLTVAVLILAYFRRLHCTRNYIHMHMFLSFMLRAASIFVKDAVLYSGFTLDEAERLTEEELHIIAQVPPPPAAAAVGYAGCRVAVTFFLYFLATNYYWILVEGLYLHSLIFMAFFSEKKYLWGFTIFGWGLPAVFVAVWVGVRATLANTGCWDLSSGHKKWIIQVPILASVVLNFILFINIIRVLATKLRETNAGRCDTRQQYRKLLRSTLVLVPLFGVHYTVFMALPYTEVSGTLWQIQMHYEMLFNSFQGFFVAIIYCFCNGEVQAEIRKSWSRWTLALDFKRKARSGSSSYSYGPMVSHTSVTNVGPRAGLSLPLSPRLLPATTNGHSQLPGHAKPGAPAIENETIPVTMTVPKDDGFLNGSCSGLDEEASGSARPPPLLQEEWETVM
Type: functional, cell-based

Row | Kb | SMILES
28 | 0.513 µM | Cc1ccc2c(c1)N(c1ccc(NCCc3ncc[nH]3)cc1)C(=O)N(C)N=C2C1CCCCC1

These compounds were tested against T3, Parathyroid hormone/parathyroid hormone-related peptide receptor (Homo sapiens) (UniProt Q03431) (assay: Displacement of [125I]-[Nle,8,18 Tyr34]-hPTH(1-34) from human recombinant PTH1R expressed in HEK293 cells at 1 uM). Conditions: not given.
T3 sequence (whole entry): T1 sequence (Q03431 whole entry)
Type: cell-based

Row | inhibition | SMILES
29 | 39% | Nc1ccc(N2C(=O)N(Cc3ccccc3)N=C(C3CCCCC3)c3ccccc32)cc1

These compounds were tested against T3, Parathyroid hormone/parathyroid hormone-related peptide receptor (Homo sapiens) (assay: Displacement of [125I]-[Nle,8,18 Tyr34]-hPTH(1-34) from human recombinant PTH1R expressed in HEK293 cells at 10 uM). Conditions: not given.
Type: cell-based

Row | inhibition | SMILES
30 | 43% | CC(C)C1=NN(Cc2ccccc2)C(=O)N(c2ccc(NC(=N)N)cc2)c2ccccc21
31 | 27% | N=C(N)Nc1ccc(N2C(=O)N(Cc3ccccc3)N=C(CN3CCCCC3)c3ccccc32)cc1

Each compound was assayed against T1, Parathyroid hormone/parathyroid hormone-related peptide receptor (assay: Antagonist activity at human recombinant PTH1 receptor expressed in HEK293 cells assessed as inhibition of PTH(1-34)-stimulated cAMP production). Conditions: read-out: pA2 (converted).
Type: functional, cell-based

Row | Kb | SMILES
32 | 0.017 µM | Cc1ccc2c(c1)N(c1ccc(NCCc3ncc[nH]3)cc1)C(=O)N(C)N=C2C1CCCCC1

Species on record: Homo sapiens
Test: Selectivity for human recombinant PTH1 receptor over human recombinant PTH2 receptor
Conditions: not given

Row | Selectivity ratio | SMILES
33 | 100 | Cc1ccc2c(c1)N(c1ccc(NCCc3ncc[nH]3)cc1)C(=O)N(C)N=C2C1CCCCC1

These compounds were tested against T3, Parathyroid hormone/parathyroid hormone-related peptide receptor (Homo sapiens) (assay: Antagonist activity at human wild type PTH1 receptor expressed in SaOS2 cells assessed as inhibition of PTHrP (1-34)-stimulated cAMP production). Conditions: SAOS-2.
Type: functional, cell-based

Row | pKb | SMILES
34 | 7.55 | Cc1ccc2c(c1)N(c1ccc(NCCc3ncc[nH]3)cc1)C(=O)N(C)N=C2C1CCCCC1

The compounds below were run against Parathyroid hormone 2 receptor (Homo sapiens) (UniProt P49190) (assay: Antagonist activity at human recombinant PTH2 receptor expressed in CHOK1 cells assessed as inhibition of TIP (1-39)-stimulated cAMP production at 10 uM). Conditions: read-out: pA2 (converted).
Chain of Parathyroid hormone 2 receptor (Homo sapiens) (P49190 whole entry, looked up): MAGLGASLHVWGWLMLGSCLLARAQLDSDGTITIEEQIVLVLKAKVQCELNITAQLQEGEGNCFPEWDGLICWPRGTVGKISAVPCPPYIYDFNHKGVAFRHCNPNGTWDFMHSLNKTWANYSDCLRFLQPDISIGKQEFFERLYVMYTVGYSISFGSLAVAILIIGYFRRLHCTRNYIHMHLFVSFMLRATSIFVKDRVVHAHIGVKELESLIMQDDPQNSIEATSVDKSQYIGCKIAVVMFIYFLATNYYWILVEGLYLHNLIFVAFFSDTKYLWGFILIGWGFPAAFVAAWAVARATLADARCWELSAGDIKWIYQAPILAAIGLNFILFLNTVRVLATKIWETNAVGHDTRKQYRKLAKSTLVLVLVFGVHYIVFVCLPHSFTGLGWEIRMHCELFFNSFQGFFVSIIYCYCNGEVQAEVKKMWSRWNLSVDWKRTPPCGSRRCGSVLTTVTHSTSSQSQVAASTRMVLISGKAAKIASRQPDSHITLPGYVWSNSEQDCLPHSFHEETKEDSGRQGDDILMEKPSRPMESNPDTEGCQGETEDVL

Row | Kb | SMILES
35 | 2.88 µM | Cc1ccc2c(c1)N(c1ccc(NCCc3ncc[nH]3)cc1)C(=O)N(C)N=C2C1CCCCC1
